Reference: PubChem BioAssay (NCI)
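1) Cells in 96-well plates. 2) Compound, 48 h, 5 concentrations. 3) Linear interpolation between surrounding doses. 4) Unreached endpoint = highest concentration. The concentration for full growth arrest is given as TGI.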

How the values were obtained:
Test in all cases: growth of human tumour cells (NCI), 48 h
[1] = system: OVCAR-5 ovarian
[2] = system: SK-MEL-28 melanoma
[3] = system: SW-620 colon
[4] = system: OVCAR-3 ovarian
[5] = system: SK-MEL-2 melanoma
[6] = system: SR leukemia
[7] = system: NCI-H460 lung
[8] = system: NCI-H226 lung
[9] = system: COLO 205 colon
[10] = system: HL-60(TB) leukemia
[11] = system: MALME-3M melanoma
[12] = system: T-47D breast
[13] = system: BT-549 breast

SMILES	TGI [1] [µM]	TGI [2] [µM]	TGI [3] [µM]	TGI [4] [µM]	TGI [5] [µM]	TGI [6] [µM]	TGI [7] [µM]	TGI [8] [µM]	TGI [9] [µM]	TGI [10] [µM]	TGI [11] [µM]	TGI [12] [µM]	TGI [13] [µM]
C1=C\CCCCN2C[C@H]3CCCC/C=C\CCCCN4CC[C@@H]([C@H](CCCCCC/1)C4)[C@H](C3)C2	21.4	3.89	6.71	3.48	4.56	> 19.8	3.68	37	4.03	12.1	3.56	4.6	19.1
O=S1C2=C(Cc3ccccc3)C(Cc3ccccc3)=C1CCc1cccc(c1)CC2	35.5	42.3	77.9	23.5	31.1	90.2	26.8	47.8	58.8	59.8	32.5	44.8	27.2
Cn1c2ccccc2c(=NNc2ccc(C(=O)O)cc2)c2ccccc21	48	60.7	65.3	49.6	40.7	42.7	43.5	54	32.3	48.6	40.8	58.9	74.9
CSC1=C(c2ccc(Cl)cc2)SC(N2CCCCC2)N1c1ccc([N+](=O)[O-])cc1 (stereo not given)	65.9	> 100	> 100	58.1	54.3	> 100	66.4	> 100	81.3	97.4	> 100	70.1	> 100
O=C1CCCCc2cccc(O)c21	> 100	> 100	> 100	> 100	> 100	> 100	> 100	> 100	> 100	> 100	> 100	> 100	> 100
